Reference: US5455222A, “1-substituted-5-thiomethylthiocyanato-1H-tetrazoles, compositions containing them and their use as antimicrobial and marine antifouling agents” (The Dow Chemical Company, priority 1994, dated 1995)
In brackets after ≈: the same amount, converted by molar mass.

Experiments:
[1] = system: Pseudomonas aeruginosa (PRD-10); assay: Minimum inhibitory concentration (MIC), bacteria in nutrient agar; format: cell-based, Pseudomonas aeruginosa ATCC 15442; conditions: 48 hours
Protocol: (§1) The minimum inhibitory concentration (MIC) for the compounds listed in Table I is determined for 9 bacteria, using nutrient agar, and 7 yeast and fungi, using malt yeast agar. A one percent solution of the test compound is prepared in a mixture of acetone and water.
(§2) Nutrient agar is prepared at pH 6.8, representing a neutral medium, and at pH 8.2, representing an alkaline medium. The nutrient agars are prepared by adding 23 g of nutrient agar to one liter of deionized water. In addition, the alkaline medium is prepared by adjusting a 0.04M solution of N-[tris-(hydroxymethyl)methyl]glycine buffered deionized water with concentrated sodium hydroxide to a pH of 8.5.
(§3) The test tubes containing the agar are cooled in a water bath until the temperature of the agar is 48° C. Then, an appropriate amount of the one percent solution of the test compound is added (except in the controls where no compound is added) to the respective test tubes so that the final concentrations are 500, 250, 100, 50, 25, 10, 5, 2.5, 1.0 and zero parts per million of the test compound in the agar, thus having a known concentration of test compound dispersed therein. The contents of the test tubes are then transferred to respective petri plates. After drying for 24 hours, the petri plates containing nutrient agar are inoculated with bacteria and those containing malt yeast agar are inoculated with yeast and fungi.
(§4) The inoculation with bacteria is accomplished by using the following procedure. Twenty-four hour-cultures of each of the bacteria are prepared by incubating the respective bacteria in tubes containing nutrient broth for 24 hours at 30° C. in a shaker. Dilutions of each of the 24 hour-cultures are made so that nine separate suspensions (one for each of the nine test bacteria) are made, each containing 10^8 colony forming units (CFU) per mL of suspension of a particular bacteria. Aliquots of 0.3 mL of each of the bacterial suspensions are used to fill the individual wells of Steer's Replicator. For each microbial suspension, 0.3 mL was used to fill three wells (i.e., three wells of 0.3 mL each) so that for the nine different bacteria, 27 wells are filled. The Steer's Replicator is then used to inoculate both the neutral and alkaline pH nutrient agar petri plates.
(§5) The inoculated petri plates are incubated at 30° C. for 48 hours and then read to determine if the test compound which is incorporated into the agar prevented growth of the respective bacteria.
(§6) Table II lists the bacteria, yeast and fungi used in the MIC test described above along with their respective American Type Culture Collection (ATCC) identification numbers.
(§7) In Tables III and IV, the MIC values of the compounds described in Table I as compared to the MIC of a standard commercial preservative (with 1-(3-chloroallyl)-3,5,7-triaza-1-azoniaadamantane chloride as the active agent and referred to in Tables III and IV as "STANDARD I") are set forth for the bacteria organisms and yeast/fungi organisms which are listed in Table II.

Proteus vulgaris (Pv) = assay: as above; format: cell-based, Proteus vulgaris ATCC 881; conditions: 48 hours
Protocol: as §1, §2, §3, §4, §5, §6, §7

[2] = system: Saccharomyces cerevisiae (Sc); assay: Minimum inhibitory concentration (MIC), yeast/fungi in malt yeast agar; format: cell-based, Saccharomyces cerevisiae ATCC 4105; conditions: 30° C., 48 hours for yeast
Protocol: as §1
(§8) Malt yeast agar is prepared by adding 3 g yeast extract and 45 g malt agar per liter of deionized water. The specific agar is dispensed in 30 mL aliquots into 25×200 mm test tubes, capped and autoclaved for 15 minutes at 115° C.
as §3
(§9) The inoculation with the yeast and fungi is accomplished as follows. Cultures of yeast and fungi are incubated for seven days on malt yeast agar at 30° C. These cultures are used to prepare suspensions by the following procedure. A suspension of each organism is prepared by adding 10 mL of sterile saline and 10 microliters of octylphenoxy polyethoxy ethanol to the agar slant of yeast or fungi. The sterile saline/octylphenoxy polyethoxy ethanol solution is then agitated with a sterile swab to suspend the microorganism grown on the slant. Each resulting suspension is diluted into sterile saline (1 part suspension to 9 parts sterile saline). Aliquots of these dilutions are placed in individual wells of Steer's Replicator and petri plates inoculated as previously described. The petri plates are incubated at 30° C. and read after 48 hours for yeast and 72 hours for fungi.
as §6, §7

Bacillus subtilis (Bs) = assay: Minimum inhibitory concentration (MIC), bacteria in nutrient agar; format: cell-based, Bacillus subtilis ATCC 8473; conditions: 48 hours
Protocol: as §1, §2, §3, §4, §5, §6, §7

Trichoderma viride (Tv) = assay: Minimum inhibitory concentration (MIC), yeast/fungi in malt yeast agar; format: cell-based, Trichoderma viride ATCC 8678; conditions: 30° C., 72 hours for fungi
Protocol: as §1, §8, §3, §9, §6, §7

marine organisms = assay: Marine antifouling activity, coated test panels exposed to marine environment; conditions: scale 10 (completely free of growth) to 0 (completely covered); for Marine Antifouling Rating, 6 Week Test, Bottom Panel / Marine Antifouling Rating, 6 Week Test, Top Panel: 6 weeks; for Marine Antifouling Rating, 6 Week Test, Bottom Panel / Marine Antifouling Rating, 15 Week Test, Bottom Panel: bottom panel (black background); for Marine Antifouling Rating, 6 Week Test, Top Panel / Marine Antifouling Rating, 15 Week Test, Top Panel: top panel (white background); for Marine Antifouling Rating, 15 Week Test, Bottom Panel / Marine Antifouling Rating, 15 Week Test, Top Panel: 15 weeks
Protocol: Test panels are prepared from clear, rigid polyvinyl chloride film that is 0.381×10^-3 m thick and has one textured surface. The test panels are 0.1524 m by 0.1524 m squares that have 0.00635 m holes punched at corners on 0.127 m centers. A 0.102 square template, with a 0.067 m diameter hole at the center, is attached to the center of the textured surface of the test panels.
A candidate marine antifoulant compound (1.0 g) is stirred into a resinous latex binder (9.0 g). A portion of the compound/binder mixture (1.5 g) is added to the center of the test panel and uniformly spread over the circular area inside the template.
Water is added dropwise as needed to properly spread the compound/binder mixture. The template prevents the compound/binder mixture from spreading beyond the uncovered area. […] The template is then removed. The test panel is then allowed to dry for 8 to 12 hours at room temperature.
Two test panels are prepared for each candidate marine antifoulant compound. Two control test panels are also prepared by only treating with the resinous latex binder. One test panel of each candidate marine […] compound is attached over a white background to the topside of an exposure support apparatus. The second test panel is attached over a black background to the underside of the exposure support apparatus. The exposure support apparatus is placed horizontally 0.0254 m under a marine surface with the white background topside facing up.
After being removed from the exposure support apparatus, each test panel is inspected and rated for marine organism growth on both the treated and untreated areas of the test panel. The marine organisms present on the treated and untreated areas are noted. The presence of algae spores and bacterial slime are noted but not included in rating each test panel. The test panels are rated on a scale from 10 (representing completely free of marine organism growth) to 0 (representing completely covered with marine organism growth).
In addition, test panels were prepared using tributyl tin oxide, a known marine antifouling compound.

[3] = system: Penicillium chrysogenum (Pc); assay: Minimum inhibitory concentration (MIC), yeast/fungi in malt yeast agar; format: cell-based, Penicillium chrysogenum ATCC 9480; conditions: 30° C., 72 hours for fungi
Protocol: as §1, §8, §3, §9, §6, §7

Candida albicans (Ca) = assay: as above; format: cell-based, Candida albicans ATCC 10231; conditions: 30° C., 48 hours for yeast
Protocol: as §1, §8, §3, §9, §6, §7

[4] = system: Pseudomonas aeruginosa (Pa); assay: Minimum inhibitory concentration (MIC), bacteria in nutrient agar; format: cell-based, Pseudomonas aeruginosa ATCC 10145; conditions: 48 hours
Protocol: as §1, §2, §3, §4, §5, §6, §7

Aspergillus niger (An) = assay: Minimum inhibitory concentration (MIC), yeast/fungi in malt yeast agar; format: cell-based, Aspergillus niger ATCC 16404; conditions: 30° C., 72 hours for fungi
Protocol: as §1, §8, §3, §9, §6, §7

| SMILES | MIC ([1]; nutrient agar pH 6.8, 30° C.) [µg/mL] | MIC ([1]; nutrient agar pH 8.2, 30° C.) [µg/mL] | MIC (Proteus vulgaris (Pv); nutrient agar pH 6.8, 30° C.) [µg/mL] | MIC (Proteus vulgaris (Pv); nutrient agar pH 8.2, 30° C.) [µg/mL] | MIC [2] [µg/mL] | MIC (Bacillus subtilis (Bs); nutrient agar pH 6.8, 30° C.) [µg/mL] | MIC (Bacillus subtilis (Bs); nutrient agar pH 8.2, 30° C.) [µg/mL] | MIC (Trichoderma viride (Tv)) [µg/mL] | Marine Antifouling Rating, 6 Week Test, Bottom Panel (marine organisms) | Marine Antifouling Rating, 6 Week Test, Top Panel (marine organisms) | Marine Antifouling Rating, 15 Week Test, Bottom Panel (marine organisms) | Marine Antifouling Rating, 15 Week Test, Top Panel (marine organisms) | MIC [3] [µg/mL] | MIC (Candida albicans (Ca)) [µg/mL] | MIC ([4]; nutrient agar pH 8.2, 30° C.) [µg/mL] | MIC (Aspergillus niger (An)) [µg/mL] | MIC ([4]; nutrient agar pH 6.8, 30° C.) [µg/mL] |
| --- | --- | --- | --- | --- | --- | --- | --- | --- | --- | --- | --- | --- | --- | --- | --- | --- | --- |
| N#CSCSc1nnnn1-c1cccc(Cl)c1 [II, 1-(3-Chlorophenyl)-5-thiomethylthiocyanato-1H-tetrazole] | 500 (≈ 1760 µM) | 250 (≈ 881 µM) | 100 (≈ 352 µM) | 250 (≈ 881 µM) | < 10 | 100 (≈ 352 µM) | 250 (≈ 881 µM) | 25 (≈ 88.1 µM) | 10 | 9 | 6 | 9 | < 10 | < 10 | 500 (≈ 1760 µM) | < 10 | – |
| N#CSCSc1nnnn1-c1ccc(Cl)cc1 [III, 1-(4-Chlorophenyl)-5-thiomethylthiocyanato-1H-tetrazole] | 25 (≈ 88.1 µM) | 50 (≈ 176 µM) | 25 (≈ 88.1 µM) | 100 (≈ 352 µM) | 2.5 (≈ 8.81 µM) | < 10 | 50 (≈ 176 µM) | 5 (≈ 17.6 µM) | 9 | 9 | 1 | 4 | < 1 | 5 (≈ 17.6 µM) | 25 (≈ 88.1 µM) | < 1 | – |
| Cc1cccc(-n2nnnc2SCSC#N)c1 [VI, 1-(3-Methylphenyl)-5-thiomethylthiocyanato-1H-tetrazole] | 500 (≈ 1900 µM) | 500 (≈ 1900 µM) | 100 (≈ 380 µM) | 100 (≈ 380 µM) | < 1 | < 10 | 25 (≈ 94.9 µM) | 25 (≈ 94.9 µM) | 10 | 9 | 9 | 8 | < 1 | 5 (≈ 19 µM) | 250 (≈ 949 µM) | 5 (≈ 19 µM) | – |
| N#CSCSc1nnnn1C1CCCCC1 [X, 1-(Cyclohexyl)-5-thiomethylthiocyanato-1H-tetrazole] | 500 (≈ 1960 µM) | 500 (≈ 1960 µM) | 250 (≈ 979 µM) | 250 (≈ 979 µM) | 5 (≈ 19.6 µM) | < 10 | 25 (≈ 97.9 µM) | 50 (≈ 196 µM) | 10 | 9 | 8 | 4 | < 1 | 50 (≈ 196 µM) | 250 (≈ 979 µM) | 5 (≈ 19.6 µM) | 250 (≈ 979 µM) |
